Laboratory results reported in patent publication US11058756B2, “Compositions and methods of treating autoimmune disease by reducing enterococcus” (YALE UNIVERSITY, priority 2017, dated 2021).

System: (NZWxBXSB)F1 mice
Assay: Serum ELISAs for anti-dsDNA, anti-RNA, anti-β2GPI IgG, ERV gp70 protein and anti-ERV gp70 immune complexes
Assay type: in vivo, mouse
From the text: Mice were cohoused for 3 to 4 weeks before antibiotic treatment to allow for equilibration of the microbiota. Single antibiotic or broad-spectrum antibiotic administration consisted of metronidazole (1 g/liter; Fisher Scientific), neomycin (1 g/liter; Fisher Scientific), ampicillin (1 g/liter; Sigma) and vancomycin (0.5 g/liter; Acros Organics) in the drinking water for up to 22 weeks or a targeted regiment for 2 weeks and then replaced with regular water for the duration of the experiment. For broad-spectrum antibiotic experiments (vancomycin, ampicillin, metronidazole, and neomycin combined), sweetener (Equal, 4 g/L) was added to both the antibiotics and control water due to the metallic taste of metronidazole. Twenty-four hours after cessation of antibiotic water, mice were administered 1×10^6 CFUs of vancomycin-resistant E. gallinarum via oral gavage, isolated from liver tissue of a vancomycin-treated mouse that continued to show signs of autoimmune disease (high-level resistance was confirmed by vanC gene PCR). E. gallinarum was grown at 37° C. in Gifu Anaerobic Broth (HIMEDIA Laboratories) to early stationary phase under anaerobic conditions (82% N2, 15% CO2, 3% H2 by volume) in an anaerobic chamber and diluted in PBS to 10^7 CFUs.
Serum antibodies specific for dsDNA and b2GPI were determined using standardized ELISAs (anti-dsDNA antibody, Abcam; and, Mouse/Rat Apolipoprotein H Antibody, R&D Systems; respectively). Anti-RNA was determined by ELISA using defined positive controls (Human/Mouse RNA Polymerase II Antibody, R&D systems). Anti-ERV gp70 ICs and ERV gp70 protein were determined by OD450 signal comparisons (Evans et al., 1990, J Virol, 64, 6176-6183). For anti-dsDNA ELISAs, DNA-BIND™ (Corning) plates were coated with 100 μg/ml salmon sperm DNA (Fisher Scientific) and blocked in 0.1M PBS, 3.0% BSA, 5.0% FBS. The serum was diluted 1:1000 for the assay and incubated for 1 hour at 37° C. Wells were washed and incubated for 1 hour at 37° C. with rabbit anti-mouse IgG (Fisher Scientific) conjugated to HRP and developed with TMB substrate solution. 2M sulfuric acid (Sigma) solution was used to stop development. The concentration of anti-dsDNA was determined by reading the absorbance at 450 nm/570 nm reference.
For anti-RNA ELISAs, DNA-BIND™ (Corning) plates were coated with […] yeast RNA (Ambion) and blocked in 0.1M PBS, 0.05% Tween-20, 5.0% FBS. The serum was diluted 1:1000 for the assay and incubated for 1 hour at 37° C. Wells were washed and incubated for 1 hour at 37° C. with rabbit anti-mouse IgG (Fisher Scientific) conjugated to HRP and developed with TMB substrate solution. 2M sulfuric acid (Sigma) solution was used to stop development. The concentration of anti-RNA IgG was determined by reading the absorbance at 450 nm/570 nm reference.
For anti-b2GPI ELISAs, Corning® 96-well EIA/RIA easy Wash™ clear flat-bottom polystyrene high-bind microplates were coated with […] recombinant b2GPI/ApoH (R&D Systems) and blocked in Pierce Protein-Free (PBS) Blocking Buffer (Thermo Scientific). The serum was diluted 1:100 for the assay and incubated at room temperature for 2 hours on a shaker. Wells were washed and incubated while shaking for 30 minutes at room temperature with goat anti-mouse IgG (Fisher Scientific) conjugated to HRP and developed with TMB substrate solution. 2M sulfuric acid (Sigma) solution was used to stop development. The concentration of anti-b2GPI was determined by reading the absorbance at 450 nm/650 nm reference. […]

`CN[C@H](CC(C)C)C(=O)N[C@H]1C(=O)N[C@@H](CC(N)=O)C(=O)N[C@H]2C(=O)N[C@H]3C(=O)N[C@H](C(=O)N[C@H](C(=O)O)c4cc(O)cc(O)c4-c4cc3ccc4O)[C@H](O)c3ccc(c(Cl)c3)Oc3cc2cc(c3O[C@@H]2O[C@H](CO)[C@@H](O)[C@H](O)[C@H]2O[C@H]2C[C@](C)(N)[C@H](O)[C@H](C)O2)Oc2ccc(cc2Cl)[C@H]1O` [vancomycin] was tested, and the “lupus-related autoantibodies (serum anti-dsDNA and anti-RNA IgG)” value (single antibiotic in drinking water, 16 weeks of age, FIG. 1B-1C) was “prevented”, the anti-β2GPI (vancomycin 0.5 g/L in drinking water from 6 weeks of age, FIG. 7) was “suppressed” and the “serum ERV gp70” value (vancomycin 0.5 g/L in drinking water from 6 weeks of age, FIG. 7K) was “suppressed”. The “anti-ERV gp70 immune complexes (ICs)” value (vancomycin 0.5 g/L in drinking water from 6 weeks of age, FIG. 7L) was “suppressed”.
